Laboratory results published in ChEMBL document CHEMBL1201862, “PubChem BioAssay data set” (2004).
“And” between values parts separate entries of the source, which are not always exact repeats. Equal entries are not always repeated.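 Dose response: 5 concentrations. Exposure: 48 h. Format: 96-well plates. Endpoint: linear interpolation; highest concentration if not reached. Abbreviation: GI50, concentration required for 50% inhibition of growth.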 The source made the active and inactive calls. No stated cut-off is given here; in the data, active = GI50 up to about 1.1 µM and inactive = higher.

Columns and labels:
Test in all cases: NCI tumour cell line growth inhibition, 48 h
[1] = tested on: 786-0
[2] = tested on: A498
[3] = tested on: ACHN
[4] = tested on: CAKI-1
[5] = tested on: CCRF-CEM
[6] = tested on: COLO 205
[7] = tested on: DLD-1
[8] = tested on: DMS-114
[9] = tested on: DMS-273
[10] = tested on: EKVX
[11] = tested on: HCC 2998
[12] = tested on: HCT-15
[13] = tested on: HL-60
[14] = tested on: HOP-18
[15] = tested on: HOP-92
[16] = tested on: HT-29
[17] = tested on: IGROV-1
[18] = tested on: K562
[19] = tested on: KM12
[20] = tested on: LOX IMVI
[21] = tested on: LXFL 529
[22] = tested on: M14
[23] = tested on: M19-MEL
[24] = tested on: MOLT-4
[25] = tested on: Malme-3M
[26] = tested on: NCI-H23
[27] = tested on: NCI-H460
[28] = tested on: NCI-H522
[29] = tested on: OVCAR-3
[30] = tested on: OVCAR-4
[31] = tested on: OVCAR-5
[32] = tested on: OVCAR-8
[33] = tested on: RPMI-8226
[34] = tested on: SF-268
[35] = tested on: SF-539
[36] = tested on: SK-MEL-28
[37] = tested on: SK-MEL-2
[38] = tested on: SK-MEL-5
[39] = tested on: SK-OV-3
[40] = tested on: SN12C
[41] = tested on: SNB-19
[42] = tested on: SNB-75
[43] = tested on: SW-620
[44] = tested on: TK-10
[45] = tested on: U-251
[46] = tested on: UACC-257
[47] = tested on: UACC-62
[48] = tested on: UO-31
[49] = tested on: XF498
[50] = tested on: A549
[51] = tested on: HCT-116
[52] = tested on: HOP-62
[53] = tested on: KM-20L2
[54] = tested on: NCI-H226
[55] = tested on: SNB-78
[56] = tested on: SR
[57] = tested on: RXF 393
[58] = tested on: SF-295

SMILES: NCCCNCCSSC/C=C\CSSCCNCCCN
- GI50 [1]: > 100 µM (inactive)
- GI50 [2]: > 100 µM (inactive)
- GI50 [3]: > 100 µM (inactive)
- GI50 [4]: 36.1 µM (inactive) and 38.5 µM (inactive)
- GI50 [5]: 3.75 µM (inactive) and 4.3 µM (inactive)
- GI50 [6]: 29.5 µM (inactive) and 45.6 µM (inactive)
- GI50 [7]: 37.5 µM (inactive) and 60.1 µM (inactive)
- GI50 [8]: 67 µM (inactive) and 44.1 µM (inactive)
- GI50 [9]: 43.1 µM (inactive) and 44.8 µM (inactive)
- GI50 [10]: > 100 µM (inactive)
- GI50 [11]: 90.6 µM (inactive)
- GI50 [12]: > 100 µM and 63.7 µM
- GI50 [13]: 16.6 µM (inactive) and 19.2 µM (inactive)
- GI50 [14]: > 100 µM (inactive)
- GI50 [15]: 18.9 µM (inactive) and 23 µM (inactive)
- GI50 [16]: 14.2 µM (inactive) and 15.3 µM (inactive)
- GI50 [17]: > 100 µM (inactive)
- GI50 [18]: 19.2 µM (inactive) and 18.4 µM (inactive)
- GI50 [19]: 17.7 µM (inactive) and 18.9 µM (inactive)
- GI50 [20]: 45.2 µM (inactive) and 43.3 µM (inactive)
- GI50 [21]: 34.9 µM (inactive) and 24.9 µM (inactive)
- GI50 [22]: 34 µM (inactive) and 49 µM (inactive)
- GI50 [23]: 64.6 µM (inactive)
- GI50 [24]: 20.4 µM (inactive) and 12.3 µM (inactive)
- GI50 [25]: 78 µM (inactive)
- GI50 [26]: > 100 µM (inactive)
- GI50 [27]: > 100 µM (inactive)
- GI50 [28]: 10.3 µM (inactive) and 13.2 µM (inactive)
- GI50 [29]: 40.5 µM (inactive) and 42 µM (inactive)
- GI50 [30]: 51.8 µM (inactive) and 58.2 µM (inactive)
- GI50 [31]: > 100 µM (inactive)
- GI50 [32]: > 100 µM (inactive)
- GI50 [33]: 26.9 µM (inactive) and 28.6 µM (inactive)
- GI50 [34]: > 100 µM (inactive) and 57.8 µM (inactive)
- GI50 [35]: 72.4 µM (inactive) and 89.3 µM (inactive)
- GI50 [36]: > 100 µM (inactive)
- GI50 [37]: 50.1 µM (inactive)
- GI50 [38]: 41.1 µM (inactive) and 62.1 µM (inactive)
- GI50 [39]: > 100 µM (inactive)
- GI50 [40]: 75.7 µM (inactive) and 44.4 µM (inactive)
- GI50 [41]: > 100 µM (inactive)
- GI50 [42]: 39.5 µM (inactive) and 37.3 µM (inactive)
- GI50 [43]: 44.4 µM (inactive) and 31.1 µM (inactive)
- GI50 [44]: > 100 µM (inactive) and 60.3 µM (inactive)
- GI50 [45]: > 100 µM (inactive) and 53.8 µM (inactive)
- GI50 [46]: 30.9 µM (inactive) and 17.1 µM (inactive)
- GI50 [47]: 36.3 µM (inactive) and 52.8 µM (inactive)
- GI50 [48]: 65 µM (inactive) and 63.4 µM (inactive)
- GI50 [49]: 52.6 µM (inactive) and 93.5 µM (inactive)

SMILES: COC(=O)c1c/c(=N\NC(=O)CC(=O)Nc2ccccc2OC)c2ccccc2o1
- GI50 [1]: 66.4 µM (inactive)
- GI50 [2]: > 100 µM (inactive)
- GI50 [50]: 74.8 µM (inactive)
- GI50 [3]: > 100 µM (inactive)
- GI50 [4]: > 100 µM (inactive)
- GI50 [6]: > 100 µM (inactive)
- GI50 [7]: > 100 µM (inactive)
- GI50 [8]: > 100 µM (inactive)
- GI50 [9]: > 100 µM (inactive)
- GI50 [10]: > 100 µM (inactive)
- GI50 [11]: 93.1 µM (inactive)
- GI50 [51]: > 100 µM (inactive)
- GI50 [12]: > 100 µM
- GI50 [13]: > 100 µM (inactive)
- GI50 [14]: 15.2 µM (inactive)
- GI50 [52]: > 100 µM (inactive)
- GI50 [16]: > 100 µM (inactive)
- GI50 [17]: > 100 µM (inactive)
- GI50 [18]: 54.2 µM (inactive)
- GI50 [53]: > 100 µM (inactive)
- GI50 [19]: > 100 µM (inactive)
- GI50 [20]: 66.8 µM (inactive)
- GI50 [21]: > 100 µM (inactive)
- GI50 [22]: > 100 µM (inactive)
- GI50 [23]: > 100 µM (inactive)
- GI50 [24]: 75.7 µM (inactive)
- GI50 [54]: > 100 µM (inactive)
- GI50 [26]: > 100 µM (inactive)
- GI50 [27]: 76 µM (inactive)
- GI50 [28]: > 100 µM (inactive)
- GI50 [29]: > 100 µM (inactive)
- GI50 [30]: > 100 µM (inactive)
- GI50 [31]: > 100 µM (inactive)
- GI50 [33]: > 100 µM (inactive)
- GI50 [34]: > 100 µM (inactive)
- GI50 [35]: > 100 µM (inactive)
- GI50 [36]: > 100 µM (inactive)
- GI50 [37]: > 100 µM (inactive)
- GI50 [38]: 91.8 µM (inactive)
- GI50 [39]: > 100 µM (inactive)
- GI50 [40]: > 100 µM (inactive)
- GI50 [41]: > 100 µM (inactive)
- GI50 [42]: > 100 µM (inactive)
- GI50 [55]: > 100 µM (inactive)
- GI50 [56]: > 100 µM (inactive)
- GI50 [43]: > 100 µM (inactive)
- GI50 [44]: > 100 µM (inactive)
- GI50 [45]: > 100 µM (inactive)
- GI50 [47]: > 100 µM (inactive)
- GI50 [48]: > 100 µM (inactive)

SMILES: CN1Cc2c(nc(-c3ccc(Br)cc3)c[n+]2[O-])N(C)C1
- GI50 [1]: > 100 µM (inactive)
- GI50 [2]: > 100 µM (inactive)
- GI50 [50]: > 100 µM (inactive)
- GI50 [3]: > 100 µM (inactive)
- GI50 [4]: > 100 µM (inactive)
- GI50 [5]: > 100 µM (inactive)
- GI50 [6]: > 100 µM (inactive)
- GI50 [7]: > 100 µM (inactive)
- GI50 [8]: > 100 µM (inactive)
- GI50 [9]: > 100 µM (inactive)
- GI50 [10]: > 100 µM (inactive)
- GI50 [51]: > 100 µM (inactive)
- GI50 [13]: > 100 µM (inactive)
- GI50 [14]: > 100 µM (inactive)
- GI50 [52]: > 100 µM (inactive)
- GI50 [15]: > 100 µM (inactive)
- GI50 [16]: > 100 µM (inactive)
- GI50 [17]: > 100 µM (inactive)
- GI50 [18]: > 100 µM (inactive)
- GI50 [53]: > 100 µM (inactive)
- GI50 [19]: > 100 µM (inactive)
- GI50 [21]: > 100 µM (inactive)
- GI50 [22]: > 100 µM (inactive)
- GI50 [24]: > 100 µM (inactive)
- GI50 [25]: > 100 µM (inactive)
- GI50 [54]: > 100 µM (inactive)
- GI50 [26]: > 100 µM (inactive)
- GI50 [27]: > 100 µM (inactive)
- GI50 [28]: > 100 µM (inactive)
- GI50 [29]: > 100 µM (inactive)
- GI50 [30]: > 100 µM (inactive)
- GI50 [31]: > 100 µM (inactive)
- GI50 [32]: > 100 µM (inactive)
- GI50 [57]: > 100 µM (inactive)
- GI50 [34]: > 100 µM (inactive)
- GI50 [58]: > 100 µM (inactive)
- GI50 [35]: > 100 µM (inactive)
- GI50 [36]: > 100 µM (inactive)
- GI50 [37]: > 100 µM (inactive)
- GI50 [38]: > 100 µM (inactive)
- GI50 [39]: > 100 µM (inactive)
- GI50 [40]: > 100 µM (inactive)
- GI50 [41]: > 100 µM (inactive)
- GI50 [42]: > 100 µM (inactive)
- GI50 [55]: > 100 µM (inactive)
- GI50 [56]: > 100 µM (inactive)
- GI50 [43]: > 100 µM (inactive)
- GI50 [45]: > 100 µM (inactive)
- GI50 [46]: > 100 µM (inactive)
- GI50 [48]: > 100 µM (inactive)
- GI50 [49]: > 100 µM (inactive)
